We go through one substance from patent US20210000953A1, “USE OF IMMUNE CHECKPOINT INHIBITORS IN CENTRAL NERVOUS SYSTEMS NEOPLASMS” (Bristol-Myers Squibb Company, priority 2014, published 2021).

Entries after “also recorded” stand apart in the source; their conditions may differ.

One data set has as its system recurrent GBM. As to the kind of experiment: Study CA209143 safety lead-in cohorts (Cohort 1, 1b): investigator-assessed tumor response per RANO (brain MRI) and overall survival. The format is in vivo, human. As to the method:
A randomized, open-label, multicenter, phase 3 study of nivolumab monotherapy versus bevacizumab and a safety study of nivolumab and nivolumab in combination with ipilimumab is conducted in adult (>18 years) subjects with a first recurrence of GBM after treatment with radiotherapy and temozolomide. Since the use of nivolumab and ipilimumab has not previously been studied in subjects with GBM, a safety lead-in (Cohort 1) consisting of approximately 10 subjects in each of two treatment arms are enrolled and randomized to treatment with either Arm N (nivolumab monotherapy) or Arm N+I (nivolumab combined with ipilimumab). Tolerability and safety of a treatment arm is determined after all subjects in the arm completed four doses or discontinued dosing prior to completing four doses. A safety evaluation of Cohort 1 is conducted for each arm based on criteria described herein.
In order to better characterize preliminary safety and tolerability for the combination therapy, an additional, non-randomized safety cohort (Cohort 1b) to evaluate an alternate dosing regimen is initiated for the combination therapy (nivolumab 3 mg/kg+ipilimumab 1 mg/kg every 3 weeks for 4 cycles followed by nivolumab 3 mg/kg thereafter). Evaluation of the efficacy of nivolumab+ipilimumab combination therapy will be evaluated separately. Information from subjects treated with combination therapy in Cohort 1 and Cohort 1b will provide a basis for dose selection for future studies in subjects with GBM.
All subjects received efficacy assessments with brain MRI with contrast on Day 1 Week 7, Day 1 Week 13, and then one time every 8 weeks (±1 week). MRIs occurred at ±7 days per scheduled visits. Investigators will obtain more frequent follow-up MRI scans as medically indicated.
The primary efficacy measure of the study is overall survival (OS). OS is defined as the time between the date of randomization and the date of death due to any cause. OS is followed continuously while subjects are on study drug and every 3 months via in-person or phone contact during the survival follow-up phase of the study.
Investigator-assessed tumor response is based upon published RANO criteria. Tumor assessments are performed as shown above in the imaging assessment for the study. Radiologic response was assessed by comparing the pretreatment baseline and on-treatment MRI scans. Radiologic progression was determined by using the smallest tumor measurement at either the pretreatment baseline or after initiation of study medication.
A complete response required: complete disappearance of all enhancing measurable and nonmeasurable disease sustained for at least 4 weeks; no new lesions; stable or improved nonenhancing (T2/FLAIR) lesions; patients must be off corticosteroids (or on physiologic replacement doses only); and stable or improved clinically. Patients with nonmeasurable disease only cannot have a complete response; the best response possible is stable disease. […]

Another data set deals with TILs and PBMCs. In words: Anti-tumor-associated antigen (TAA) activity, dual-color IFNγ/granzyme B FluoroSpot assay. It is filed as cell-based, human. Conditions: cells isolated from patients treated with nivolumab monotherapy (FIG. 17). As to the method: (§1) Analyses were performed on peripheral blood drawn from patients at predetermined time points (FIG. 13) and tumor tissue samples were obtained if resection was performed at the time of progression or suspected progression. Baseline and on-treatment samples were obtained from patients (n=20) randomized 1:1 to receive either nivolumab 3 mg/kg every 2 weeks (Q2W) or nivolumab 1 mg/kg+ipilimumab 3 mg/kg every 3 weeks followed by nivolumab 3 mg/kg Q2W (FIG. 13). Phenotypic, maturation, and proliferation analyses were performed using flow cytometry with population-specific antibody panels (Table 11). Cytokine release analyses were carried out on supernatants from sorted Tregs (CD4+CD25+CD127−)±stimulation (PMA+ionomycin). The anti-tumor-associated antigen (TAA) activity of peripheral blood mononuclear cells (PBMCs) and tumor-infiltrating lymphocytes (TILs) was evaluated. Cells were stimulated with interleukin (IL)-2, IL-15, and TAA peptides; after 9 days of culture with IL-2 and IL-15, cells were restimulated with IL-2, IL-15, and TAA peptides. Production of interferon (IFN)γ/granzyme B was assayed using a dual-color FluoroSpot assay.

In another data set the test system is Tregs. As to the kind of experiment: Cytokine release from sorted Tregs (CD4+CD25+CD127−) ± stimulation. The format is cell-based, human. Conditions: GBM patients on nivolumab treatment. As to the method:
as §1

For data set [1] the following is noted: Phase 1 study of nivolumab; cited from earlier work.
The conditions of data set [2]: in vivo; cited from earlier work.
The mark [3] stands for this setting: exploratory analysis, Cohort 1, recurrent GBM, N = 10 per arm, same regimens.
The mark [4] stands for this setting: investigator-assessed per RANO, Cohort 1, recurrent GBM, N = 10 per arm, nivolumab 3 mg/kg Q2W or nivolumab 1 mg/kg + ipilimumab 3 mg/kg Q3W x4 then nivolumab 3 mg/kg Q2W.

nivolumab: the “Patients who experienced stable disease or better” value in the data set with recurrent GBM (Cohort 1 nivolumab monotherapy 3 mg/kg, RANO) is on record as 6/10. Moreover, the “Time on treatment of the one patient still receiving nivolumab at cutoff” value in the data set with recurrent GBM (Cohort 1 nivolumab monotherapy arm, cutoff Sep. 9, 2015) is on record as 17.5 months. Also, the “Brain MRI following three treatments” value with recurrent GBM (case: Cohort 1 Arm N, nivolumab 3 mg/kg monotherapy) is on record as “disease progression as per RANO”. Moreover, in the data set with recurrent GBM (case: MGMT methylated, EGFRvIII positive GBM, nivolumab 3 mg/kg), the “Response according to RANO criteria” value is given as “partial response”. In the data set with recurrent GBM (case: nivolumab 3 mg/kg), the “Brain MRI four weeks after resection” value is “did not show tumor growth”. The “Brain MRI on Aug. 28, 2014” value with recurrent GBM (case: nivolumab 3 mg/kg delayed, dexamethasone 4 mg BID) is “improvement with resolution of rim enhancement”. Besides, the “Death, time after randomization” value in the data set with recurrent GBM (case: nivolumab 3 mg/kg, treated 227 days) is 397 days. Moreover, in the data set on recurrent GBM (case: nivolumab 3 mg/kg, 90 at baseline), the “Karnofsky performance status at all subsequent visits” value is on record as 90. Also, the “Time to distant disease progression after resuming nivolumab following surgery” value in the data set on recurrent GBM (case: nivolumab 3 mg/kg, hippocampus and right hypothalamus, proven on autopsy) was 4 months. Also, the “Overall survival: Median, months (95% CI)” value with recurrent GBM (exploratory analysis, Cohort 1, recurrent GBM, N = 10 per arm, nivolumab 3 mg/kg Q2W or nivolumab 1 mg/kg + ipilimumab 3 mg/kg Q3W x4 then nivolumab 3 mg/kg Q2W, NE: not estimated) is given as 10.5 (4.1-NE)^ months. For the same substance, in the data set on recurrent GBM (setting [3]), the “Overall survival: 6-month rate (95% CI)” value is reported as 70.0% (32.9-89.2); the “Overall survival: 9-month rate (95% CI)” value was 60.0% (25.3-82.7); the “Overall survival: 12-month rate (95% CI)” value was 40.0% (12.3-67.0); the “Overall survival: Range, months” value is 4.1-17.6 months. Further, in the data set with recurrent GBM (setting [4]), the “Best overall response: Complete Response” value is reported as 0 n (%), the “Best overall response: Partial Response” value is 1 (10) n (%), the “Best overall response: Progressive Disease” value is on record as 3 (30) n (%) and the “Best overall response: Stable Disease” value is 5 (50) n (%). The “Best overall response: Unable to Determine” value in the data set on recurrent GBM (setting [4]) was 1 (10) n (%). The “Anti-TAA activity of TILs and PBMCs upon restimulation” value in the data set on TILs and PBMCs was “increased anti-TAA activity; also recorded: functional responses to TAAs in both TILs and PBMCs”. Also, the “Production of IFNγ by Tregs” value with Tregs is reported as “increase production of IFNγ”. Further, the “Subjects with apparent progression of disease before objective response and/or stable disease” value in data set [1] is “approximately 10%”. Further, in data set [2], the Terminal half life entry is “up to 25 days”.
